# Test results published in patent publication US20080267909A1, “PHAGOCYTE ENHANCEMENT THERAPY FOR ATHEROSCLEROSIS” (THE TRUSTEES OF COLUMBIA UNIVERSITY IN THE CITY OF NEW YORK, priority 2005, published 2008).
# Legend:
# [1] = tested on: FC-induced apoptotic macrophages; conditions: phagocytes pre-treated with 100 μM for 15 minutes; compared to untreated phagocytes; FIG. 2
# Experimental: Briefly, mouse peritoneal macrophages were labeled with the fluorophore calcein-AM (green) and then FC-loaded to induced apoptosis. Some of the macrophages were not FC-loaded, thus serving as a non-apoptotic control. The macrophages were added to a monolayer of octadecylrhodamine-labeled (red) macrophage phagocytes for 30 minutes at 37° C. The monolayers were then thoroughly rinsed with phosphate buffered saline (PBS). […] The percentage of rhodamine-labeled phagocytes with green inclusion was determined and quantified. Inclusion of green indicated the uptake of apoptotic cells into the phagocytes.
# [2] = tested on: ingesting phagocytes (IPs) and non-IPs; assay: FC-induced apoptosis (annexin V) in IPs and non-IPs during 20 hour post-ingestion FC-loading; type: cell-based, mouse; conditions: 10 μM inhibitor; for apoptosis in IPs: 20 hours in FC-loading medium, FIG. 10A
# Experimental: FIG. 10A is a bar graph depicting the results of experiments in which the protocol described in FIG. 9C was used and the percent apoptosis was determined in non-IPs (cross-hatched bars) and IPs (black bars) that were incubated for 20 hours in FC-loading medium either in the absence or presence of 10 μM of the IKK inhibitor PS1145, 10 μM of the PI-3 kinase/Akt inhibitor […], or both compounds.
# (§1) FC-AMs were removed from the culture dish and cultured for 30 minutes with a monolayer of fresh macrophages (“phagocytes”) at an approximate ratio of 1:5 (FC-AMs:phagocytes). In certain experiments, the FC-AMs were labeled with Alexa Fluor 488 annexin V or Calcium Green™-AM for 20 minutes prior to addition to the phagocytes in order to mark those phagocytes that had ingested the FC-AMs (“ingesting phagocytes,” or “IPs”). The non-ingested apoptotic cells were then removed by thorough rinsing as described in Li et al. (2006, J. Biol. Chem. 281:6707-6717), and the phagocytes were incubated in fresh medium for the indicated times. In some experiments, the phagocytes were incubated during the post-ingestion incubation in medium containing acetyl-LDL and 58035 to maintain FC levels in the (ingesting phagocytes) IPs, inhibitors of Akt or NFκB, or various combinations of these reagents. To assay apoptosis in the phagocytes, the cells were stained with Alexa Fluor 594 annexin V and viewed by fluorescence microscopy. For quantification, 4-6 representative fields of cells at 40× magnification were counted to determine the number of apoptotic phagocytes and total phagocytes for each condition.
# Because NFκB is known to signal survival responses in cells, the functional significance of NFκB signaling in the survival response of IPs against FC-induced apoptosis was investigated. […] The NFkB and Akt survival pathways might represent independent, complementary survival pathways or they may signal through a common final mediator. […]
# [3] = tested on: ingesting phagocytes (IPs) and non-IPs; assay: UV-induced apoptosis (annexin V) in IPs and non-IPs; type: cell-based, mouse; conditions: 10 μM inhibitor, 8 hour incubation after UV irradiation, FIG. 12
# [4] = tested on: cholesterol trafficking to ACAT in the ER; assay: Whole-cell cholesterol esterification assay in phagocytes after ingestion of FC-AMs; type: cell-based, mouse; conditions: 1 μM during the post-ingestion period; FIG. 7
# Experimental: FIG. 7 is a bar graph depicting the results of experiments in which macrophages were incubated for 18 hours in medium alone (i.e., no exposure to FC-AMs) or in the same medium for the indicated time points after ingestion of FC-AMs. All of the incubations contained [^14C]oleate, and some of the phagocytes were incubated with 1 μM U18666A during the post-ingestion period to block cholesterol trafficking to the endoplasmic reticulum (ER). To make sure that the phagocytes would not be exposed to residual ACAT inhibitor in the FC-AMs, the FC-AMs for this experiment were generated by incubating macrophages from Acat1−/− mice with AcLDL without ACAT inhibitor. After the indicated time points, the macrophages were assayed for cholesteryl [^14C]oleate formation as an indicator of cholesterol trafficking to ACAT in the ER.
# After a 30 minute incubation of phagocytes with FC-AMs that were made using acetyl-LDL and macrophages from Acat1^−/− mice (i.e., no ACAT inhibitor), non-ingested apoptotic cells were removed, and the phagocytes were incubated in fresh medium containing [^14C]oleate for specific times. […] Cholesterol esterification activity was then determined in lipid extracts of the cells by measuring the cellular content of cholesteryl [^14C]oleate by thin-layer chromatography (Tabas et al., 1987, J. Clin. Invest. 79:418-426). […]
# [5] = tested on: apoptotic J774 cells; assay: Phagocytic uptake of apoptotic J774 cells by peritoneal macrophages, ROCK inhibitor (Example 4); type: cell-based; conditions: 10 μM, one hour pre-treatment, 45 minutes with apoptotic cells; vs untreated; FIG. 4
# Experimental: As discussed in Example 6, statins can inhibit RhoA activation. RhoA activation inhibits phagocytic clearance of apoptotic cells and so inhibitors of RhoA or the downstream RhoA effector, Rho kinase (ROCK) can enhance or at least contribute to limit or decrease Rho-mediated inhibition of phagocytic clearance. […] In these experiments, peritoneal macrophages (phagocytes) were treated for one hour in the presence or absence of 10 μM Y-27632. Calcein-AM-labeled (green) apoptotic J774 cells (UV-irradiated) were then added to the phagocytes at a ratio of 1:1, in the absence or presence of Y-27632. After 45 minutes, non-internalized cells were removed by rinsing, and the percentage of phagocytes that had internalized labeled apoptotic macrophages was quantified by fluorescence microscopy. Results are depicted in FIG. 4 as the as the mean ±SEM; n=3 fields of cells, each containing approximately 150 cells.
# [6] = tested on: UV-induced apoptotic J774 macrophages; assay: Phagocytosis of UV-induced apoptotic J774 macrophages by J744 murine macrophages (Example 4); type: cell-based; conditions: 10 μM, one hour pre-treatment, 45 minutes; vs untreated; FIG. 5
# Experimental: In a similar experiment, J744 murine macrophages (phagocytes) were pretreated in the presence of absence of the ROCK inhibitor fasudil (10 μM) for one hour. The phagocytes were then incubated for 45 minutes, with or without fasudil, with fluorescently labeled UV-induced apoptotic J774 macrophages (“UV-Ams”). The percentage of phagocytes that had engulfed at least one UV-AM was quantified using fluorescent microscopy. […] Such compounds are useful for treating cardiovascular disease.
# [7] = tested on: ingesting phagocytes (IPs); assay: Apoptosis in phagocytes that had ingested FC-AMs, incubated with SRA ligand; type: cell-based, mouse
# Experimental: as §1
# FC-induced apoptosis in macrophages requires UPR activation in combination with engagement of the type A scavenger receptor (SRA), both of which occur with acetyl-LDL-induced FC loading. […]
# [8] = tested on: UV-irradiated apoptotic J774 cells; assay: Efferocytosis of UV-irradiated apoptotic J774 cells by cytokine pre-treated primary efferocytes; type: cell-based; conditions: pre-treated about 24 hours, challenged 30 minutes; FIG. 17
# Experimental: FIG. 17. Primary efferocytes were pre-treated with the indicated cytokine for about 24 hours and then challenged for 30 minutes with UV-irradiated apoptotic J774 cells and the percent efferocytosis was determined.
# Thus, drugs that mimic this effect can promote the uptake of apoptotic macrophages in advanced atherosclerotic lesions (see in allergic, cellular and humoral responses to parasitic and extracellular pathogens (see Nat Rev Immunol. 2003 January;3(1):23-35).
molecule,measurement,setting,value
"CCN(CC)CC.Nc1ncnc2c1ncn2C1OC2COP(O)(=S)OC2C1O (single isomer, unassigned) [PKA inhibitor, adenosine 3′,5′-cyclic monophosphorothioate, Rp-isomer, triethylammonium salt]",percentage of rhodamine-labeled phagocytes with green inclusion (uptake of FC-induced apoptotic macrophages),[1],internalized more FC-induced apoptotic macrophages than untreated phagocytes
O=c1cc(N2CCOCC2)oc2c(-c3ccccc3)cccc12 [LY294002],apoptosis in IPs,[2],32.0±5.7%
O=C(Nc1cc(Cl)cc2c1[nH]c1cnccc12)c1cccnc1 [PS1145],FC-induced apoptosis in IPs (in words),"[2]; 20 hours FC-loading, vs no inhibitor",very similar effect
same,apoptosis in IPs,[2],32.0±3.4%
same,UV-induced apoptosis in non-IPs / compared to non-IPs,[3],no effect
same,UV-induced apoptosis in IPs,[3]; vs no-inhibitor control,only a small increase
CCN(CC)CCO[C@H]1CC[C@@]2(C)C(=CC[C@@H]3[C@@H]2CC[C@]2(C)C(=O)CC[C@@H]32)C1 [U18666A],FC-AM-induced increase in cholesterol esterification (cholesteryl [14C]oleate formation),[4],completely blocked
"C[C@@H](N)[C@H]1CC[C@H](C(=O)Nc2ccncc2)CC1 [Y-27632, trans-4-[(1R)-1-aminoethyl]-N-pyridin-4-ylcyclohexanecarboxamide]",percentage of phagocytes ingesting apoptotic macrophages,[5],increase
O=S(=O)(c1cccc2cnccc12)N1CCCNCC1 [fasudil],percentage phagocytosis (phagocytes that had engulfed at least one UV-AM),[6],increased
fucoidan,induction of apoptosis in the IPs,[7],did not induce apoptosis
"interleukin-4: cytokine that promotes alternative activation of macrophages (protein, UniProt P05112 25-153, looked up) Interleukin-4: HKCDITLQEIIKTLNSLTEQKTLCTELTVTDIFAASKNTTEKETFCRAATVLRQFYSHHEKDTRCLGATAQQFHRHKQLIRFLKRLDRNLWGLAGLNSCPVKEANQSTLENFLERLKTIMREKYSKCSS",percent efferocytosis (ability of phagocytes to engulf apoptotic macrophages),[8],promotes the ability of these phagocytes to engulf apoptotic macrophages
